The compounds below were run against T1, purified catalytic domain of recombinant human TACE (rhTACEc) (Homo sapiens, UniProt P78536, N452Q/S266A) (assay: TACE kinetic assay: cleavage of internally quenched peptide substrate SPDL-3, fluorescence). Conditions: TACE inhibitory activity, class symbols; read-out: Ki.
T1 construct: Residue 215 to 477 with two mutation (S266A and N452Q) and a 6×His tail; 6xHis (C); made in house; host or cells: baculovirus/Hi5 insect cells
Format: biochemical
Experimental: TACE activity is determined by a kinetic assay measuring the rate of increase in fluorescent intensity generated by TACE catalyzed cleavage of an internally quenched peptide substrate (SPDL-3). […] It is purified from the baculovirus/Hi5 cells expression system using affinity chromatography. […] MCA is (7-Methoxycoumarin-4-yl)acetyl. Dpa is N-3-(2,4-Dinitrophenyl)-L-2,3-diaminopropionyl.
A 50 μl assay mixture contains 20 mM HEPES, pH 7.3, 5 mM CaCl2, 100 μM ZnCl2, 2% DMSO, 0.04% Methylcellulose, 30 μM SPDL-3, 70 pM rhTACEc and a test compound. RhTACEc is pre-incubated with the testing compound for 90 min. at 25° C. Reaction is started by addition of the substrate. […] Rate of enzymatic reaction is shown as Units per second. Effect of a test compound is shown as % of TACE activity in the absence of the compound.

T1 sequence (P78536 215-477 S266A/N452Q): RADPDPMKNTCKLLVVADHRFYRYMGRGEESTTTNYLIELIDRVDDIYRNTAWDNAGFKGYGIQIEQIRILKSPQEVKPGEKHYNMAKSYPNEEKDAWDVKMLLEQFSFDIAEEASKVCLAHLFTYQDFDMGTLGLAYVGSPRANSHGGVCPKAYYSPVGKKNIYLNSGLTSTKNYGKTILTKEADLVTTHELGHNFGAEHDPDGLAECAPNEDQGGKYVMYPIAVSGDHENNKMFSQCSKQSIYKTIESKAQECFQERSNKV

Ki [nM] | SMILES
< 20 | CC#CCOc1cc([C@@H](C)NC(=O)[C@H](O)[C@@H](O)C(=O)N2CCC[C@@H]2c2cccc(Cl)c2)ccc1-n1cccn1 [Compound 2571]
> 1000 | Cn1cc(-c2ccccc2)nc1[C@H](O)[C@@H](O)C(=O)NCC1CCN(c2ccc(F)cc2C#N)CC1 [Compound 2396]
100 to 1000 | Cn1c(Cc2ccccc2)cnc1[C@H](O)[C@@H](O)C(=O)NCC1CCN(c2ccc(F)cc2C#N)CC1 [Compound 2365]
> 1000 | CCOc1c(F)cccc1N1CCC(CNC(=O)[C@H](O)[C@@H](O)C(=O)N2CCCC2)CC1 [Compound 2141]
< 20 | CC#CCOc1cc([C@@H](C)NC(=O)[C@H](O)[C@@H](O)C(=O)N2Cc3cccnc3C2)ccc1-n1cccn1 [Compound 2359]
< 20 | O=C(NC[C@H]1CC[C@@H](n2c(C(F)(F)F)nc3ccccc32)CC1)[C@H](O)[C@@H](O)C(=O)N1CCC[C@@H]1c1ccccc1 [Compound 2352]
20 to 100 | O=C(NCc1ccc(-c2ccccc2OCCC2CCCC2)cc1)[C@H](O)[C@@H](O)C(=O)N1CCCC1 [Compound 2339]
< 20 | CCOc1cc(F)ccc1-c1ccc(CNC(=O)[C@H](O)[C@@H](O)C(=O)N2Cc3ccncc3C2)cc1 [Compound 2042]
> 1000 | N#Cc1cc(F)ccc1N1CCC(CNC(=O)[C@H](O)[C@@H](N)C(=O)N2CCCC2)CC1 [Compound 2456]
< 20 | C[C@@H](NC(=O)[C@H](O)[C@@H](O)C(=O)N1CCc2ccc(F)cc2C1)c1ccc(-n2cccn2)cc1 [Compound 2439]
< 20 | C[C@@H](NC(=O)[C@H](O)[C@@H](O)C(=O)N1Cc2cccnc2C1)c1ccc(-n2cccn2)c(OCc2ccccc2)c1 [Compound 2304]
> 1000 | N#Cc1cc(F)ccc1N1CCC(CNC(=O)[C@H](O)[C@@H](O)c2cnccn2)CC1 [Compound 2387]
20 to 100 | C[C@@H]1CN(c2ccc(F)cc2C#N)CCC1CNC(=O)[C@H](O)[C@@H](O)C(=O)N1CCCC1 (some centres unmarked) [Compound 2150]
20 to 100 | C[C@](O)(C(=O)NCC1CCN(c2ccccc2OC(F)(F)F)CC1)[C@@H](O)C(=O)N1Cc2cccnc2C1 [Compound 2038]
< 20 | C[C@@H]1CN(c2ccccc2C#N)CCC1CNC(=O)[C@H](O)[C@@H](O)C(=O)N1Cc2ccccc2C1 (some centres unmarked) [Compound 2143]
100 to 1000 | N#Cc1cc(F)ccc1N1[C@@H]2CC[C@H]1CC(CNC(=O)[C@H](O)[C@@H](O)C(=O)N1Cc3ccccc3C1)C2 (some centres unmarked) [Compound 2149]
> 1000 | Cn1c(-c2ccccc2)cnc1[C@H](O)[C@@H](O)C(=O)NCC1CCN(c2ccc(F)cc2C#N)CC1 [Compound 2402]
> 1000 | Cn1c([C@H](O)[C@@H](O)C(=O)NCC2CCN(c3ccc(F)cc3C#N)CC2)nc2ccccc21 [Compound 2394]
> 1000 | Cn1cnnc1[C@H](O)[C@@H](O)C(=O)NCC1CCN(c2ccc(F)cc2C#N)CC1 [Compound 2376]
20 to 100 | C[C@@H](NC(=O)[C@H](O)[C@@H](O)C(=O)N1Cc2cccnc2C1)c1ccc(-c2cccc(OCCC3CCCCC3)c2)cc1 [Compound 2353B]
100 to 1000 | Cn1ccnc1[C@H](O)[C@@](C)(O)C(=O)NCC1CCN(c2ccc(F)cc2C#N)CC1 [Compound 2395]
< 20 | CCOc1ncccc1-c1ccc(CNC(=O)[C@H](O)[C@@H](O)C(=O)N2CCC[C@@H]2c2cccc(Cl)c2)cc1 [Compound 2334]
20 to 100 | C[C@](O)(C(=O)NCC1CCN(c2ccc(F)cc2C#N)CC1)[C@@H](O)C(=O)N1Cc2cccnc2C1 [Compound 2034]
> 1000 | C[C@@H](NC(=O)[C@H](O)[C@@H](O)C(=O)N1C2CCC1c1cncnc1C2)c1ccc(-n2cccn2)cc1 (some centres unmarked) [Compound 2093]
> 1000 | O=C(NCc1ccc(-c2ccccc2OC(F)(F)F)c[n+]1[O-])[C@H](O)[C@@H](O)C(=O)N1CCCC1 [Compound 2347]
> 1000 | O=C(NCC1CCN(c2cccc(F)c2OC(F)(F)F)CC1)[C@H](O)[C@@H](O)C(=O)N1CCCC1 [Compound 2140]
< 20 | C[C@@H](NC(=O)[C@H](O)[C@@H](O)C(=O)N1CCCCC1c1ccccc1)c1ccc(-n2cccn2)cc1 (some centres unmarked) [Compound 2410]
< 20 | O=C(NCC1CCN(c2ccc(F)cc2Br)CC1)[C@H](O)[C@@H](O)C(=O)N1Cc2ccccc2C1 [Compound 2139]
20 to 100 | O=C(NCC1CCN(c2ccccc2OCCC2CCCCC2)CC1)[C@H](O)[C@@H](O)C(=O)N1CCCC1 [Compound 2158]
20 to 100 | O=C(NCc1ccc(-c2ccccc2)cc1)[C@H](O)[C@@H](O)C(=O)N1Cc2cccnc2C1 [Compound 2037]

Further lines, the compound ahead of its results:

SMILES | Ki [nM]
C[C@@H](NC(=O)[C@H](O)[C@@H](O)C(=O)N1CCC[C@@H]1c1csc2nccn12)c1ccc(-n2cccn2)cc1 [Compound 2506] | < 20
C[C@@H](NC(=O)[C@](C)(O)[C@@H](O)C(=O)N1Cc2cccnc2C1)c1ccc(-c2cccc(OCCC3CCCCC3)c2)cc1 [Compound 2353A] | 100 to 1000
C[C@H](c1ccc(-n2cccn2)cc1)N1CCO[C@H]([C@@H](O)C(=O)N2Cc3ccccc3C2)C1=O [Compound 2474] | > 1000
C[C@@H](NC(=O)[C@H](O)[C@@H](O)C(=O)N1CCCCC1c1csc(N)n1)c1ccc(-n2cccn2)cc1 (some centres unmarked) [Compound 2417] | 20 to 100
CNc1ncc2c(n1)CN(C(=O)[C@H](O)[C@@H](O)C(=O)N[C@H](C)c1ccc(-n3cccn3)cc1)C2 [Compound 2052] | < 20
C[C@@H](NC(=O)[C@H](O)[C@@H](O)C(=O)N1CCc2ncccc2C1)c1ccc(-n2cccn2)cc1 [Compound 2077] | 20 to 100
CNc1nc2c(s1)CN(C(=O)[C@H](O)[C@@H](O)C(=O)N[C@H](C)c1ccc(-n3cccn3)cc1)CC2 [Compound 2084] | 20 to 100
C[C@@H](NC(=O)[C@H](O)[C@@H](O)C(=O)N1CCc2ncncc2C1)c1ccc(-n2cccn2)cc1 [Compound 2079] | 100 to 1000
CC(=O)N(C)c1nc([C@H]2CCCN2C(=O)[C@H](O)[C@@H](O)C(=O)N[C@H](C)c2ccc(-n3cccn3)cc2)cs1 [Compound 2261] | < 20
CC(C)Nc1nc([C@H]2c3ccccc3CN2C(=O)[C@H](O)[C@@H](O)C(=O)N[C@H](C)c2ccc(-n3cccn3)cc2)cs1 [Compound 2592] | < 20
C[C@@H](NC(=O)[C@H](O)[C@@H](O)C(=O)N1CC2CC1CN2c1ccc(Cl)cc1)c1ccc(-n2cccn2)cc1 (some centres unmarked) [Compound 2419] | 100 to 1000
C[C@@H](NC(=O)[C@H](O)[C@@H](O)C(=O)N1CCC[C@@H]1c1csc(N2CCCCC2)n1)c1ccc(-n2cccn2)cc1 [Compound 2258] | 20 to 100
C[C@@H](NC(=O)[C@H](O)[C@@H](O)C(=O)N1CCc2cc(Cl)ccc2C1c1cc[nH]n1)c1ccc(-n2cccn2)cc1 (some centres unmarked) [Compound 2596] | < 20
C[C@@H](NC(=O)[C@H](O)[C@@H](O)C(=O)N1CCCC1(C)c1ccccc1)c1ccc(-n2cccn2)cc1 (some centres unmarked) [Compound 2235] | < 20
C[C@@H](NC(=O)[C@H](O)[C@@H](O)C(=O)N1CC[C@H](O)[C@H]1c1cccc(Cl)c1)c1ccc(-n2cccn2)cc1 [Compound 2266] | < 20
CC1c2ncncc2CN1C(=O)[C@H](O)[C@@H](O)C(=O)N[C@H](C)c1ccc(-n2cccn2)cc1 (some centres unmarked) [Compound 2049] | 20 to 100
C[C@@H](NC(=O)[C@](C)(O)[C@@H](O)C(=O)N1CCCC1(C)c1cccc(Cl)c1)c1ccc(-n2cccn2)cc1 (some centres unmarked) [Compound 2236] | > 1000
C[C@@H]1CCC[C@H](C)N1C(=O)[C@H](O)[C@@H](O)C(=O)N[C@H](C)c1ccc(-n2cccn2)cc1 [Compound 2409] | 100 to 1000
C[C@@H](NC(=O)[C@](C)(O)[C@@H](O)C(=O)N1Cc2ccncc2C1)c1ccc(-n2cccn2)cc1 [Compound 2039] | < 20
C[C@@H](NC(=O)[C@H](O)[C@@H](O)C(=O)N1CCC[C@@H]1c1ccn(-c2ccc(F)cc2)n1)c1ccc(-n2cccn2)cc1 [Compound 2599] | < 20
CNc1nc([C@H]2C=CCN2C(=O)[C@H](O)[C@@H](O)C(=O)N[C@H](C)c2ccc(-n3cccn3)cc2)cs1 [Compound 2250] | < 20
CC1c2cnc(N)nc2CN1C(=O)[C@H](O)[C@@H](O)C(=O)N[C@H](C)c1ccc(-n2cccn2)cc1 (some centres unmarked) [Compound 2051] | 20 to 100

Same assay, conditions: TACE, representative compounds, numeric values; read-out: Ki

Ki [nM] | SMILES
2 | C[C@@H](NC(=O)[C@H](O)[C@@H](O)C(=O)N1CCC[C@@H]1c1ccn(-c2ccc(F)cc2)n1)c1ccc(-n2cccn2)cc1 [drawing 1317]
0.74 | C[C@@H](NC(=O)[C@H](O)[C@@H](O)C(=O)N1Cc2ccncc2C1)C1CCN(c2ccccc2OC(F)(F)F)CC1
0.8 | C[C@@H](NC(=O)[C@H](O)[C@@H](O)C(=O)N1CCC[C@@H]1c1cccc(Cl)c1)c1ccc(-n2cccn2)cc1 [drawing 1304]
3 | C[C@@H](NC(=O)[C@H](O)[C@@H](O)C(=O)N1CCc2ccc(F)cc2C1)c1ccc(-n2cccn2)cc1 [drawing 1323]

Continued, compound first:

SMILES | Ki [nM]
CNc1nc([C@H]2C=CCN2C(=O)[C@H](O)[C@@H](O)C(=O)N[C@H](C)c2ccc(-n3cccn3)cc2)cs1 [drawing 1300] | 0.57
CNc1nc([C@H]2CCCN2C(=O)[C@H](O)[C@@H](O)C(=O)N[C@H](C)c2ccc(-n3cccn3)cc2)c(C)s1 [drawing 1315] | 2
CC(C)Nc1nc([C@H]2c3ccccc3CN2C(=O)[C@H](O)[C@@H](O)C(=O)N[C@H](C)c2ccc(-n3cccn3)cc2)cs1 [drawing 1298] | 0.54

Reference: patent US7652020B2, “Compounds for the treatment of inflammatory disorders” (Schering Corporation, priority 2004, dated 2010)
